{
  "source": "paper PMC4914680",
  "about": "(Antimicrobial Agents and Chemotherapy, 2016)",
  "key": {"[1]": {"system": "HIV-1 subtype C clinical isolates", "assay": "Drug susceptibility assay using clinical isolates in PBMCs"}, "[2]": {"molecular_target": "WT HIV-1 VLPs, p25 to p24 (CA/SP1) cleavage (Human immunodeficiency virus type 1 group M subtype B, UniProt P03348)", "assay": "HIV-1 VLP protease cleavage assay", "format": "biochemical", "details": "Western blot"}, "HIV-1 integrase": {"molecular_target": "HIV-1 integrase (Human immunodeficiency virus type 1 group M subtype B, UniProt P03366)", "assay": "HIV-1 integrase inhibitor binding assay"}, "in vitro": {"assay": "in vitro", "details": "dog"}, "HIV-1 MN": {"system": "HIV-1 MN", "assay": "Multiple-cycle assay, laboratory strains", "format": "cell-based", "details": "Human immunodeficiency virus 1, CXCR4, MT-2"}, "HIV-1 SF-2": {"system": "HIV-1 SF-2", "assay": "Multiple-cycle assay, laboratory strains", "format": "cell-based", "details": "Human immunodeficiency virus 1; SF-2, CXCR4, MT-2"}, "[3]": {"system": "HIV-1 subtype A clinical isolates", "assay": "Drug susceptibility assay using clinical isolates in PBMCs", "details": "Human immunodeficiency virus 1, PBMC"}, "[4]": {"system": "MJ4, a subtype C molecular clone", "assay": "RT activity in PBMCs", "details": "Human immunodeficiency virus 1, PBMC"}, "[5]": {"molecular_target": "HIV-1 reverse transcriptase (Human immunodeficiency virus type 1 group M subtype B, UniProt P03366)", "assay": "In vitro HIV-1 reverse transcriptase assay", "format": "biochemical"}, "[6]": {"assay": "Serum binding assay (ultracentrifugation)"}, "[7]": {"system": "HIV-1 subtype G clinical isolates", "assay": "Drug susceptibility assay using clinical isolates in PBMCs", "details": "Human immunodeficiency virus 1, PBMC"}},
  "note": "Read-outs that look alike come from different tables or passages of the source.",
  "data": [
    {"smiles": "C=C(C)[C@@H]1CC[C@]2(NCCN3CCS(=O)(=O)CC3)CC[C@]3(C)[C@H](CC[C@@H]4[C@@]5(C)CC=C(c6ccc(C(=O)O)cc6)C(C)(C)[C@@H]5CC[C@]43C)[C@@H]12", "note": "[BMS-955176]", "values": [
      {"measurement": "EC50", "setting": "[1]; Human immunodeficiency virus 1, PBMC, PBMCs, one insensitive subtype C isolate", "result": 1400, "unit": "nM"},
      {"measurement": "EC50", "setting": "[1]; Human immunodeficiency virus 1, PBMC, read-out: Mean EC50 ± SD, PBMCs, C, 13 of 14 isolates", "result": "17 ± 11", "unit": "nM"},
      {"measurement": "EC50", "setting": "[1]; Human immunodeficiency virus 1, PBMC, read-out: Mean EC50 ± SD, PBMCs, C, 14 isolates", "result": 116, "unit": "nM"},
      {"measurement": "EC50", "setting": "[1]; Human immunodeficiency virus 1, PBMC, read-out: Median EC50, PBMCs, C, 13 of 14 isolates", "result": 14, "unit": "nM"},
      {"measurement": "EC50", "setting": "[1]; Human immunodeficiency virus 1, PBMC, read-out: Median EC50, PBMCs, C, 14 isolates", "result": 14, "unit": "nM"},
      {"measurement": "EC50", "setting": "[1]; Human immunodeficiency virus 1, PBMC, read-out: Range EC50, PBMCs, C, 13 of 14 isolates", "result": "1 to 45", "unit": "nM"},
      {"measurement": "EC50", "setting": "[1]; Human immunodeficiency virus 1, PBMC, read-out: median EC50 values, Fig 7, PBMCs, C (Group M)", "result": 15000, "unit": "nM"},
      {"measurement": "EC50", "setting": "[1]; read-out: Range EC50, PBMCs, C, 14 isolates", "result": "1 to 1400", "unit": "nM"},
      {"measurement": "inhibition of conversion of VLP p25 to p24", "setting": "[2]", "result": "inhibited the conversion of HIV-1 WT VLP p25 to p24 in a dose-dependent manner"},
      {"measurement": "IC50", "setting": "HIV-1 integrase", "result": "> 15000", "unit": "nM"},
      {"measurement": "CC50", "setting": "in vitro", "result": 3900, "unit": "nM"},
      {"measurement": "EC50", "setting": "HIV-1 MN", "result": "0.9 ± 0.6", "unit": "nM"},
      {"measurement": "EC50", "setting": "HIV-1 SF-2", "result": "11 ± 1.5", "unit": "nM"},
      {"measurement": "EC50", "setting": "[3]; PBMCs, one less sensitive subtype A isolate", "result": 280, "unit": "nM"},
      {"measurement": "EC50", "setting": "[3]; read-out: Mean EC50 ± SD, PBMCs, A, 13 of 14 isolates", "result": "26 ± 25", "unit": "nM"},
      {"measurement": "EC50", "setting": "[3]; read-out: Mean EC50 ± SD, PBMCs, A, 14 isolates", "result": "44 ± 72", "unit": "nM"},
      {"measurement": "EC50", "setting": "[3]; read-out: Median EC50, PBMCs, A, 13 of 14 isolates", "result": 20, "unit": "nM"},
      {"measurement": "EC50", "setting": "[3]; read-out: Median EC50, PBMCs, A, 14 isolates", "result": 21, "unit": "nM"},
      {"measurement": "EC50", "setting": "[3]; read-out: Range EC50, PBMCs, A, 13 of 14 isolates", "result": "5 to 87", "unit": "nM"},
      {"measurement": "EC50", "setting": "[3]; read-out: Range EC50, PBMCs, A, 14 isolates", "result": "5 to 280", "unit": "nM"},
      {"measurement": "EC50", "setting": "[3]; read-out: median EC50 values, Fig 7, PBMCs, A (Group M)", "result": 20000, "unit": "nM"},
      {"measurement": "EC50", "setting": "[4]", "result": 3, "unit": "nM"},
      {"measurement": "IC50", "setting": "[5]", "result": "> 50000", "unit": "nM"},
      {"measurement": "human serum binding", "setting": "[6]; 100% human serum, ultracentrifugation method", "result": 86, "unit": "%"},
      {"measurement": "fraction unbound at 1 h, 0.052 µM", "setting": "[6]; human, serum", "result": 0.14},
      {"measurement": "EC50", "setting": "[7]; read-out: Mean EC50 ± SD", "result": "11 ± 4", "unit": "nM"},
      {"measurement": "EC50", "setting": "[7]; read-out: Median EC50", "result": 10, "unit": "nM"},
      {"measurement": "EC50", "setting": "[7]; read-out: Range EC50", "result": "8 to 15", "unit": "nM"}
    ]}
  ]
}
